Measured values: patent publication US20260083126A1, “ANTIMICROBIAL COMPOSITIONS” (AHV International B.V., priority 2022, published 2026)

Experiments:
[1] = test system: Staphylococcus aureus LUH14616; test: Resistance development on repeated exposure (19 passages); assay type: cell-based
Description: Experimental design. Potential resistance to AM-8 was assessed as described by Habets and Brockhurst (2012) (Therapeutic antimicrobial peptides may compromise natural immunity. Biol Lett 8:416-418). Briefly, log phase bacteria (S. aureus LUH 14616) were diluted in RPMI-mod to a concentration of 2×10^6 CFU/ml. Next, 50 μl of this bacterial suspension were mixed with 50 μl of a range of dilutions of AM-8 or—as comparator-rifampicin in v-bottom 96-wells plates. Thereafter, the plates were covered with a plastic seal and incubated for 24 hrs at 37° C. in a shaking incubator (200 rpm). The plates were then centrifuged for 5 min at 2,000 rpm and the growth inhibition was determined. To start the resistance development testing, 100 μl of a mid-log bacterial suspension containing 2×10^6 CFU/ml were mixed with 150 μl of RPMI-mod and 5 μl of this diluted bacterial suspension were applied to v-bottom wells containing a dilution range of AM-8 or antibiotics (various concentrations below and above MIC) in RPMI-mod (RPMI 1640 modified with 20 mM Hepes and L-glutamine and without sodium bicarbonate (Sigma-Aldrich); further referred to as RPMI-mod). After 24 hrs at 37° C. in a shaking incubator (200 rpm) the growth inhibition was determined. 100 μl of the bacterial suspension from the 0.5×MIC wells were mixed with 150 μl of RPMI-mod and 5 μl of the diluted bacterial suspension were used to inoculate a new 96-wells plate containing a dilution series of AM-8 or rifampicin, and these mixtures were then incubated as described above. If resistance developed, the concentration range of AM-8 and/or antibiotic was adjusted accordingly. This was repeated 19 times. Results are expressed as the fold-increase in MIC compared to the MIC at the start of the experiment.

[2] = test system: Staphylococcus epidermis ATCC 35984 biofilm; test: MBEC assay (48 h biofilm, CFU log reduction); assay type: cell-based, Staphylococcus epidermidis; details: 20 h treatment, 0.125-1 mM tested
Description: (§1) For the MBEC assay (method 1.3) the solutions need to be diluted to a final concentration of 2 mM in 0.9% saline solution and then further diluted to 1 mM, 0.5 mM, 0.25 mM and 0.125 mM in saline. Those dilutions were added as treatment to the 96 well plates with the grown biofilm (see method 3) (0.5 mL needed for one strain). The dilution must stay transparent.
(§2) Frozen aliquots of Staphylococcus epidermis ATCC 35984 and Pseudomonas aeruginosa ATCC 27853 were used to inoculate 20 mL of Tryptic Soy Broth (TSB) in a 100 mL Erlenmeyer flask at 37° C. and 150 rpm and incubated overnight (Infors). The OD600 of the overnight culture was measured with a spectrophotometer (Evolution™ 201/220 UV-Visible Spectrophotometer, Thermo Fisher Scientific) and diluted to an ( ) 600 of 0.2, which resembles 10^8 CFU/mL. The cell suspension of OD600=0.2 was seeded into a U-bottom-shaped 96 well plates by pipetting 100 μL per well in column 1-11, column 12 was filled with 100 μL medium as sterility control. The 96 well plates were sealed with adhesive polyethylene film for sealing microplates and incubated for 48 h at 37° C. at static conditions. After the biofilm growth phase, 100 μL of treatment solutions (method 1) were added to the vials resulting in treatment concentrations of 1 mM, 0.5 mM, 0.25 mM and 0.125 mM and with the respective concentration of Tween 80 and DMSO each at 0.63%, 0.32%, 0.16% and 0.08%. The same concentration was applied to four different wells of the same bacterial strain, resulting in four replicates for each concentration and strain. The treatment was incubated for 20 h at 37° C. at static conditions. After the treatment the supernatant was carefully removed and the well with the biofilm washed carefully for one time with 200 μL 0.9% saline solution. 200 μL saline solution was added and the biofilm was resuspended thoroughly. When fully homogenized then 20 μl, was used for the first dilution in 180 μL 0.9% saline solution, which was prepared in a second plate. This dilution was continued until dilution step 10E-5 and 100 μL of the 10E-4 and 10E-5 dilution plated on a TSA plate. The TSA plates were incubated at 37° C. for 24 h. The colonies on the plates were enumerated, the colony forming units per ml, of the dispensed biofilm and averages thereof and the log reduction in comparison with the untreated sample from the same wells plate calculated. Reduction of colony forming units goes hand in hand with the thickness of the biofilm and thus with the number bacteria that are present in the biofilm. Therefore, a significant reduction of colony forming units in the biofilm was defined at the value of log reduction >1 or more. This assay was repeated two times in two independent experiments)

[3] = test system: Staphylococcus epidermidis ATCC 35984; test: MIC assay (growth inhibition of planktonic microorganisms); assay type: cell-based; details: 24 h at 37° C., MHB-II
Description: (§3) The exact weighed amount was noted and the volume of solvent to reach a 80 mM dilution calculated. Half of the volume was added first, by adding Tween 80 and let stand for 5 minutes. In a second step, the other half of the volume DMSO was added and resuspended to help the dilution process. The closed tube was inverted 5-10 times and then vortexed very thoroughly for at least 30 seconds. If after this procedure crystals were still visible, the tube was placed in a shaker at 37° C. at 150 rpm for at least 30 minutes (it is indicated if the dissolution period was longer than 2 h). […] In case of Bis(4-Chlorophenyl) thiosulfonate, a lower concentrated stock solution of 2 mM needed to be prepared. For that, the required amount of compound was weighed in and 2% v/v Tween80 and 2% v/v DMSO of the end volume of the stock solution was added to the substance. This mix was heated in a water bath set to 40° C. and occasionally shaken. When the whole amount of the substance reached dissolution, the volume was filled up with growth medium until the end volume. This 2 mM stock solution of Bis(4-Chlorophenyl) thiosulfonate was used in the MIC plate and diluted two-fold, resulting in a testing range of Bis(4-Chlorophenyl) thiosulfonate from 1 mM to 0.002 mM.
(§4) The microorganisms as indicated in Table 4 were used to inoculate a tryptic soy agar (TSA) plate and incubated overnight at 37° C. After incubation 3-5 well-isolated colonies with the same morphology were selected from the TSA plate and resuspended in 2 mL 0.9% saline solution with 3-6 glass beads and vortexed. The optical density at 600 nm (OD600) of the bacterial suspension was measured with a spectrophotometer (Evolution™ 201/220 UV-Visible Spectrophotometer, Thermo Fisher Scientific) and diluted to an OD600 of 0.0008, which resembles 10^6 CFU/mL.
(§5) The MIC assay was performed in a flat-bottom 96-microtiter plate. 50 μL of MHB-II was added into columns 2-11, and 100 μL to column 12 for sterility control. 100 μL of the 8 mM test compound solution (method 1) was added to column 1. A two-fold dilution series of the solution in MHB-II was achieved by resuspending 50 μL of the 8 mM solution from column 1 to column 2. This step was repeated until column 10. The respective concentration of Tween 80 and DMSO in column 1 was 2.5%, which is two-fold diluted throughout the plate. 50 μL of the bacterial suspension was added to column 1-11. The microtiter plates were sealed with adhesive polyethylene film for sealing microplates (Diversified Biotech) and incubated for 24 h at 37° C. After incubation the OD was measured at 600 nm with the Varioskan (Thermo Fisher Scientific). The minimal concentration which causes reduction of final OD600 of the bacterial culture by 50% (MIC50) and by 90% (MIC90) was calculated after normalization of the obtained OD values to the growth control in column 11. This assay was repeated three times in three independent experiments.

[4] = test system: Pseudomonas aeruginosa ATCC 27853 biofilm; test: MBEC assay (48 h biofilm, CFU log reduction); assay type: cell-based; details: 20 h treatment, 0.125-1 mM tested
Description: as §1, §2

[5] = test system: Pseudomonas aeruginosa ATCC 27853; test: MIC assay (growth inhibition of planktonic microorganisms); assay type: cell-based; details: 24 h at 37° C., MHB-II
Description: as §3, §4, §5
Hereafter, the stock solutions of the compounds were used in three repetitions in a minimal inhibitory concentration (MIC) assay at a 2-fold dilution range with various bacteria from the gram-positive and gram-negative group and a yeast, Candida albicans. The concentrations that show only less than 10% growth after 24 h were considered the MIC90-values, whereas the concentrations that show 50% growth after 24 h when compared to the bacterial growth control were considered the MIC50-values. Escherichia coli and Staphylococcus aureus were used as representatives for a gram-negative bacteria and gram-positive bacteria, respectively. Furthermore, the yeast C. albicans was also tested.
In an Eppendorf tube between 10-20 mg of the test compound was weighed. Hereafter, the required amount of Tween 80 was added, followed by the amount DMSO. After vigorous shaking, the dissolved and transparent dilutions were diluted 10 times with Mueller Hinton Broth (MHB) for the MIC assay. […]

[6] = reduction of final OD600 by 50%
[7] = reduction of final OD600 by 90%

Row | S. epidermidis MIC50 [3, 6] [µM] | S. epidermidis MIC90 [3, 7] [µM] | P. aeruginosa MIC50 [5, 6] [µM] | P. aeruginosa MIC90 [5, 7] [µM] | MIC50 ([3]; Staphylococcus epidermidis, ATCC35984, reduction of final OD600 by 50%, read-out: S. epidermidis MIC50) [µM] | MIC90 ([3]; Staphylococcus epidermidis, ATCC35984, reduction of final OD600 by 90%, read-out: S. epidermidis MIC90) [µM] | MIC50 ([5]; Pseudomonas aeruginosa, ATCC27853, 24 h, reduction of final OD600 by 50%, read-out: P. aeruginosa MIC50) [µM] | MIC90 ([5]; Pseudomonas aeruginosa, ATCC27853, reduction of final OD600 by 90%, read-out: P. aeruginosa MIC90) [µM] | Structure (SMILES) | fold-increase in MIC compared to the MIC at the start ([1]; after passage 10) [fold] | fold-increase in MIC compared to the MIC at the start ([1]; after the last passage) [fold] | fold-increase in MIC compared to the MIC at the start ([1]; at passages 4-5) [fold] | S. epidermidis MBEC mM with log reduction ≥1 [2] [mM] | P. aeruginosa MBEC mM with log reduction ≥1 [4] [mM]
1 |  |  |  |  |  |  |  |  | CO[C@H]1/C=C/O[C@@]2(C)Oc3c(C)c(O)c4c(O)c(c(/C=N/N5CCN(C)CC5)c(O)c4c3C2=O)NC(=O)/C(C)=C\C=C\[C@H](C)[C@H](O)[C@@H](C)[C@@H](O)[C@@H](C)[C@H](OC(C)=O)[C@@H]1C [rifampicin, reference compound] | 146 | > 292 | 10 |  | 
2 | 20 | 20 | 20 | 20 |  |  |  |  | [O-][S+](Sc1ccc(Cl)cc1)c1ccc(Cl)cc1 (stereo not drawn) [Bis (4-chlorophenyl) thiosulfinate, Bis(4-chlorophenyl) thiosulfinate] |  |  |  | >1 | >1
3 |  |  |  |  | > 4000 | > 4000 | > 4000 | > 4000 | CC(C)SSC(C)C [Di-isopropyl disulfide, reference compound] |  |  |  | >1 | >1
